Laboratory results reported in patent US7855216B2, “Aza-indolyl compounds and methods of use” (Genentech, Inc., priority 2006, dated 2010).

Key:
[1] = test system: HCT116 and A375 cell lines; test: Cell proliferation assay (CellTiter-Glo); type: cell-based; settings: Homo sapiens; in either cell line (HCT116 or A375); 72 h exposure
Method: Compounds are tested in a cell proliferation assay using the following cell lines:
(§1) Both cell lines are maintained in DMEM/F12 (1:1) media (Gibco) supplemented with 10% FCS at 37° C. in a 5% CO2 humidified incubator.
Cells are seeded in 96-well plates at 2,000 cells/well and after 24 hours they are exposed to different concentrations of compounds in 0.83% DMSO. Cells are grown for a further 72 h, and an equal volume of CellTiter-Glo reagent (Promega) is added to each well. This lyses the cells and generates a luminescent signal proportional to the amount of ATP released (and therefore proportional to the number of cells in the well) that can be detected using a multi-well luminometer.
The EC50 is defined as the concentration at which a given compound achieves 50% inhibition of control. IC50 values are calculated using the XLfit software package (version 2.0.5).

[2] = test system: phospho-ERK in HCT116 and A375 cell lines; test: Phospho-ERK cell-based assay; settings: Homo sapiens; in either cell line (HCT116 or A375); 2 h or 24 h exposure
Method: Compounds are tested in a cell-based phospho-ERK ELISA using the following cell lines:
as §1
Cells are seeded in 96-well plates at 2,000 cells/well and after 24 h they are exposed to different concentrations of compounds in 0.83% DMSO. Cells are grown for a further 2 h or 24 h, fixed with formaldehyde (2% final) and permeabilised with methanol. Following blocking with TBST-3% BSA, fixed cells are incubated with primary antibody (anti-phospho ERK from rabbit) over-night at 4° C. Cells are incubated with Propidium Iodide (DNA fluorescent dye) and detection of cellular p-ERK is performed using an anti-rabbit secondary antibody conjugated to the fluorescent Alexa Fluor 488 dye (Molecular probes). The fluorescence is analysed using the Acumen Explorer (TTP Labtech), a laser-scanning microplate cytometer, and the Alexa Fluor 488 signal is normalised to the PI signal (proportional to cell number).
The EC50 is defined as the concentration at which a given compound achieves a signal half way between the baseline and the maximum response. EC50 values are calculated using the XLfit software package (version 2.0.5).

EC50 [1] [µM] | EC50 [2] [µM] | Compound
< 10 | < 10 | Cn1c(C(=O)NOC[C@H](O)CO)c(Nc2ccc(I)cc2F)c2cnccc21 [Example 5, 3-(2-Fluoro-4-iodo-phenylamino)-1-methyl-1H-pyrrolo[3,2-c]pyridine-2-carboxylic acid ((R)-2,3-dihydroxy-propoxy)-amide]
< 10 | < 10 | Cn1c(C(=O)NOCCO)c(Nc2ccc(I)cc2F)c2cnccc21 [Example 6, 3-(2-Fluoro-4-iodo-phenylamino)-1-methyl-1H-pyrrolo[3,2-c]pyridine-2-carboxylic acid (2-hydroxy-ethoxy)-amide]
< 10 | < 10 | COCCn1c(C(=O)NOCCO)c(Nc2ccc(I)cc2F)c2cnccc21 [Example 7]
< 10 | < 10 | O=C(NOCCO)c1[nH]c2ccncc2c1Nc1ccc(I)cc1F [Example 10]
< 10 | < 10 | CCn1c(C(=O)NOCCO)c(Nc2ccc(I)cc2F)c2cnccc21 [Example 11]
< 10 | < 10 | O=C(NOCCO)c1c(Nc2ccc(I)cc2F)c2cnccc2n1CC1CC1 [Example 23]
< 10 | < 10 | O=C(NOCCO)c1c(Nc2ccc(I)cc2F)c2cnccc2n1Cc1ccccc1 [Example 24]
< 10 | < 10 | O=C(NOCCO)c1c(Nc2ccc(I)cc2F)c2cnccc2n1Cc1ccncc1 [Example 25]
< 10 | < 10 | O=C(NOCCO)c1c(Nc2ccc(I)cc2F)c2cnccc2n1Cc1cccnc1 [Example 26]
< 10 | < 10 | O=C(NOCCO)c1c(Nc2ccc(I)cc2F)c2cnccc2n1Cc1ccccc1F [Example 27]
< 10 | < 10 | O=C(NOCCO)c1c(Nc2ccc(I)cc2F)c2cnccc2n1CCc1ccccc1 [Example 31]
< 10 | < 10 | O=C(NOCCO)c1c(Nc2ccc(I)cc2F)c2cnccc2n1Cc1ccc(F)cc1 [Example 33]
– | < 10 | O=C(NOCCO)c1[nH]c2c(Cl)cncc2c1Nc1ccc(I)cc1F [Example 34]
< 10 | < 10 | Cn1c(C(=O)NOCCO)c(Nc2ccc(I)cc2F)c2cncc(F)c21 [Example 37]
< 10 | < 10 | O=C(NOCC1CC1)c1[nH]c2ccncc2c1Nc1ccc(I)cc1F [Example 38]
< 10 | < 10 | Cn1c(C(=O)NOCCO)c(Nc2ccc(I)cc2F)c2cncc(Cl)c21 [Example 39]
< 10 | < 10 | CC(C)(C)ONC(=O)c1[nH]c2ccncc2c1Nc1ccc(I)cc1F [Example 40]
< 10 | < 10 | O=C(NOCCO)c1c(Nc2ccc(I)cc2F)c2cnccc2n1CCCO [Example 41]
< 10 | < 10 | N#Cc1ccc(Cn2c(C(=O)NOCCO)c(Nc3ccc(I)cc3F)c3cnccc32)s1 [Example 46]
< 10 | < 10 | O=C(NOCCO)c1[nH]c2c(F)cncc2c1Nc1ccc(I)cc1F [Example 49]
< 10 | < 10 | C[C@H](O)CONC(=O)c1c(Nc2ccc(I)cc2F)c2cncc(F)c2n1C [Example 54]
< 10 | < 10 | CSc1ccc(Nc2c(C(=O)NOCCO)n(C)c3ccncc23)c(F)c1 [Example 56]
< 10 | < 10 | O=C(NOCCO)c1c(Nc2ccc(I)cc2F)c2cnccc2n1C1CC1 [Example 61, 1-Cyclopropyl-3-(2-fluoro-4-iodo-phenylamino)-1H-pyrrolo[3,2-c]pyridine-2-carboxylic acid (2-hydroxy-ethoxy)-amide]
< 10 | < 10 | C#CCn1c(C(=O)NOCCO)c(Nc2ccc(I)cc2F)c2cnccc21 [Example 64, 3-(2-Fluoro-4-iodo-phenylamino)-1-prop-2-ynyl-1H-pyrrolo[3,2-c]pyridine-2-carboxylic acid (2-hydroxy-ethoxy)-amide]
< 10 | < 10 | O=C(NOCCO)c1c(Nc2ccc(I)cc2F)c2cnccc2n1CC#CCO [Example 65, 3-(2-Fluoro-4-iodo-phenylamino)-1-(4-hydroxy-but-2-ynyl)-1-H-pyrrolo[3,2-c]pyridine-2-carboxylic acid (2-hydroxy-ethoxy)-amide]

More lines, now with the values behind:

Compound | EC50 [1] [µM] | EC50 [2] [µM]
COc1ccc(Cn2c(C(=O)NOCCO)c(Nc3ccc(I)cc3F)c3cnccc32)cc1 [Example 8] | < 10 | < 10
Cn1c(C(=O)NO)c(Nc2ccc(I)cc2F)c2cnccc21 [Example 13] | < 10 | < 10
Cn1c(C(=O)NOCC2CC2)c(Nc2ccc(I)cc2F)c2cnccc21 [Example 15] | < 10 | < 10
Cn1c(C(N)=O)c(Nc2ccc(I)cc2F)c2cnccc21 [Example 16] | < 10 | < 10
COc1ccc(Cn2c(C(N)=O)c(Nc3ccc(I)cc3F)c3cnccc32)cc1 [Example 17] | – | < 10
O=C(NOCCO)c1c(Nc2ccc(I)cc2F)c2cnccc2n1Cc1cccc(C(F)(F)F)c1 [Example 28] | – | < 10
CS(=O)(=O)c1ccc(Cn2c(C(=O)NOCCO)c(Nc3ccc(I)cc3F)c3cnccc32)cc1 [Example 29] | – | < 10
CN(C)C(=O)c1ccc(Cn2c(C(=O)NOCCO)c(Nc3ccc(I)cc3F)c3cnccc32)cc1 [Example 30] | – | < 10
CN(C)C(=O)c1ccc(Cn2c(C(=O)NOCCO)c(Nc3ccc(I)cc3F)c3cnccc32)cc1 [Example 42] | < 10 | –
O=C(NOCCO)c1c(Nc2ccc(I)cc2F)c2cnccc2n1Cc1ccc(C(F)(F)F)cc1 [Example 43] | < 10 | < 10
N#Cc1ccc(Cn2c(C(=O)NOCCO)c(Nc3ccc(I)cc3F)c3cnccc32)cc1 [Example 44] | < 10 | < 10
CN(C)C(=O)c1cccc(Cn2c(C(=O)NOCCO)c(Nc3ccc(I)cc3F)c3cnccc32)c1 [Example 45] | < 10 | < 10
CN(C)S(=O)(=O)c1cccc(Cn2c(C(=O)NOCCO)c(Nc3ccc(I)cc3F)c3cnccc32)c1 [Example 47] | < 10 | < 10
N#Cc1cccc(Cn2c(C(=O)NOCCO)c(Nc3ccc(I)cc3F)c3cnccc32)c1 [Example 48] | < 10 | < 10
CN(C)S(=O)(=O)c1ccc(Cn2c(C(=O)NOCCO)c(Nc3ccc(I)cc3F)c3cnccc32)cc1 [Example 50] | – | < 10
CSc1ccc(Nc2c(C(=O)NOC(C)(C)CO)n(C)c3ccncc23)c(F)c1 [Example 57] | < 10 | < 10
CSc1ccc(Nc2c(C(=O)NOC[C@H](C)O)n(C)c3ccncc23)c(F)c1 [Example 58] | < 10 | < 10
CSc1ccc(Nc2c(C(=O)NOC(C)(C)CO)[nH]c3ccncc23)c(F)c1 [Example 59, 3-(2-Fluoro-4-methylsulfanyl-phenylamino)-1H-pyrrolo[3,2-c]pyridine-2-carboxylic acid (2-hydroxy-1,1-dimethyl-ethoxy)-amide semiformate] | < 10 | < 10
CSc1ccc(Nc2c(C(=O)NOCCO)n(C3CC3)c3ccncc23)c(F)c1 [Example 62, 1-Cyclopropyl-3-(2-fluoro-4-methylsulfanyl-phenylamino)-1H-pyrrolo[3,2-c]pyridine-2-carboxylic acid (2-hydroxy-ethoxy)-amide] | – | < 10
O=C(NOCC(O)CO)c1c(Nc2ccc(I)cc2F)c2cnccc2n1C1CC1 (stereo not shown) [Example 63, 1-Cyclopropyl-3-(2-fluoro-4-iodo-phenylamino)-1H-pyrrolo[3,2-c]pyridine-2-carboxylic acid (2,3-dihydroxy-propoxy)-amide] | < 10 | < 10
